Format in all cases: cell-based
Experiment [1] has as its target T1, Cloned human M1 receptor (CHRM1) (Homo sapiens, UniProt P11229).
T1 construct: expressed in transfected cells; host or cells: HEK293
T1 sequence (P11229 1-460): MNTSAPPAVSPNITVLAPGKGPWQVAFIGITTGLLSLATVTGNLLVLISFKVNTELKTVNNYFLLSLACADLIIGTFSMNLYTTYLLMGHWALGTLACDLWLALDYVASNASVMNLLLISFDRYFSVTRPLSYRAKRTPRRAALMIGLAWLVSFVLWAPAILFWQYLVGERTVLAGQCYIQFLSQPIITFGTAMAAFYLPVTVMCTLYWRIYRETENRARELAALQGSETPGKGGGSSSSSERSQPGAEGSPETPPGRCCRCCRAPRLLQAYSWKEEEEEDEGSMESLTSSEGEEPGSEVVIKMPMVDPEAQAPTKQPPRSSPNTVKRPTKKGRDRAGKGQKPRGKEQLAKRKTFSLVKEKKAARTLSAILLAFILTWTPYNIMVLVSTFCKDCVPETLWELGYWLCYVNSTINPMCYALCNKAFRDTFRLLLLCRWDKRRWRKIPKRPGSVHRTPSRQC
In words: CHRM1 Ca++ Flux Assay (HEK293 M1 cells, agonist mode). As to conditions: for M1 FDSS PA % / Emax: Percent Activity (PA); for pEC50: geometric mean if tested more than once, read-out: M1 FDSS EC50; for Emax: read-out: M1 FDSS PA %. As for the experimental part: (§1) The above examples were characterized by measuring the intracellular mobilization of Ca^++ ions caused by signaling events mediated by the receptor. The Intra-cellular Calcium flux levels were captured by the highly sensitive Ca^++ indicator, Calcium Assay Kit (BD Biosciences; Catalog Number 640178. The fluorescent activity from all receptors were monitored by the fluorescent imager, FDSS 7000EX (Hamamatsu) over a span of 3 minutes. The change in Calcium flux was readily captured upon activation with the muscarinic orthosteric agonist, Carbachol.
Cloned human M1 receptor (CHRM1) was stably expressed in HEK293 cells and were grown and maintained in a monolayer culture with DMEM/High Glucose (Life Technologies) supplemented with 10% Fetal Bovine Serum, 1×Pen-Strep, and 0.5 mg/mL Geneticin in a humidified atmosphere (5% CO2) at 37° C. The cultures were grown to 90% confluency in T150 flasks (Corning) and washed with 1×DPBS and lifted with 0.05% Trypsin (Life Technologies). The cells were then spun (1K rpm, 3 minutes) and frozen using Recovery Cell Culture Freezing Media (Gibco Technologies). Cells were stored in liquid nitrogen and thawed a day before the assay.
Prior to the day of the assay, stable HEK293 M1 cells were thawed and plated on 384 well black walled clear bottom TC treated plates (Greiner Cat #781091) at 25K cells/well with DMEM/High Glucose supplemented with 10% FBS (Hyclone) Pen-Strep (Life Technologies) and kept overnight in a humidified atmosphere (5% CO2) at 37° C. The following day, cells were loaded with 20 uL Ca^++ dye (BD Biosciences) using Loading Buffer (HBSS +Ca/+Mg, 20 mM HEPES) and placed back in cell incubator for a minimum of 1 hour. The dye was replaced with 45 μL Assay Buffer (HBSS −Ca/−Mg, 20 mM HEPES) and kept at room temperature prior to running on cell imager. Compounds were prepared in Assay Buffer and 5 uL was added to the cells. The FDSS 7000EX (Hamamatsu) was used to acquire Ca++ traces for 3 minutes from cells treated with 11 point dose in triplicate in order to generate dose response curves in agonist mode. All compounds were serially diluted in DMSO then prepared in Assay Buffer for Ca^++ flux studies. The dose response curves were generated from the average of triplicate wells obtained from each data point and used a non-linear regression of four parameter dose response algorithm. The Percent Activity (PA) was measured to EC100 of Carbachol.
(§2) If an Example was tested more than once in an assay, then the values below represent the geometric mean of the results from each independent experiment.

The target in experiment [2] is T2, human cloned CHRM5 receptor (Homo sapiens, UniProt P08912).
T2 construct: expressed in transfected cells; host or cells: CHO (M5_CHO)
T2 sequence (P08912 1-532): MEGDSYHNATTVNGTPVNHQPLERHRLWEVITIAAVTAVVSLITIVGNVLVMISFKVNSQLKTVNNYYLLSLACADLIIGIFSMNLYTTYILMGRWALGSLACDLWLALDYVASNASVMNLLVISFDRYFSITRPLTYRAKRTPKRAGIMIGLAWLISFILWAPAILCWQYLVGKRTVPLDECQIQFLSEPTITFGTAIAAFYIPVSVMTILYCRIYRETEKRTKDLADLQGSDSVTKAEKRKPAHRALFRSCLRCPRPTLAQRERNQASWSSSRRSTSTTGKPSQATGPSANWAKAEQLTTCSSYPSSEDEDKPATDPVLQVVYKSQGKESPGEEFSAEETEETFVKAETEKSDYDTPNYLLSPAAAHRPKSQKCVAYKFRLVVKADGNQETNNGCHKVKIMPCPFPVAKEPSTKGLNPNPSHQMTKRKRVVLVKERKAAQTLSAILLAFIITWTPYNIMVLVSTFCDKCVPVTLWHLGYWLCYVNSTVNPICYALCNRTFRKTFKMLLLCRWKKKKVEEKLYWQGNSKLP
In words: CHRM5 Ca++ Flux Assay (M5_CHO cells, agonist mode). Particulars: for M5 FDSS PA % / Emax: Percent Activity (PA) measured to EC100 of Carbachol; for pEC50: agonist mode, geometric mean if tested more than once, read-out: M5 FDSS EC50; for Emax: read-out: M5 FDSS PA %. The method, then:
as §1
(§3) CHO-K1 cells stably expressing the human cloned CHRM3 receptor (M3_CHO cells) were grown and maintained in a monolayer culture with F12/HAM (Life Technologies) supplemented with 10% Fetal Bovine Serum, IX Pen-Strep, and 0.4 mg/mL Geneticin in a humidified atmosphere (5% CO2) at 37° C. The cultures were grown to 80-90% confluency in T150 flasks (Corning) and washed with 1×DPBS and lifted with 0.05% Trypsin (Life Technologies). The cells were then spun (1K rpm, 3 minutes) and frozen using Recovery Cell Culture Freezing Media (Gibco Technologies). Cells were stored in liquid nitrogen and thawed a day before the assay. A similar procedure was used for cells stably expressing the human cloned CHRM5 receptor (M5_CHO).
(§4) Prior to the day of the assay, stable M3_CHO or M5_CHO cells were thawed and plated on Greiner 384 well black TC treated plates at 12K cells/well in F12/DMEM supplemented with 10% FBS (Hyclone) and kept overnight in a humidified atmosphere (5% CO2) at 37° C. The next day, cells were loaded with Ca^++ dye (BD Biosciences) using Loading Buffer (HBSS +Ca/+Mg, 20 mM HEPES, 2.5 mM Probenecid) and placed back in cell incubator for a minimum of 1 hour. After incubation, the dye was replaced with Assay Buffer (HBSS −Ca/−Mg, 20 mM HEPES, 2.5 mM Probenecid) and kept at room temperature in the dark before running on cell imager. The FDSS 7000EX (Hamamatsu) was used to acquire Ca^+− traces from cells treated with 11 point dose response of compounds in triplicate in order to generate dose response curves in agonist mode. All compounds were serially diluted in DMSO then prepared in Assay Buffer for Ca^++ flux studies. The dose response curves were generated from the average of triplicate wells obtained from each data point and used a non-linear regression of four parameter dose response algorithm. The Percent Activity (PA) was measured to EC100 of Carbachol.
as §2

In experiment [3] the target is T3, human cloned CHRM3 receptor (Homo sapiens, UniProt P20309).
T3 construct: expressed in transfected cells; host or cells: CHO-K1 (M3_CHO)
In words: CHRM3 Ca++ Flux Assay (M3_CHO cells, agonist mode). Particulars: for M3 FDSS PA % / Emax: Percent Activity (PA) measured to EC100 of Carbachol; for pEC50: agonist mode, geometric mean if tested more than once, read-out: M3 FDSS EC50; for Emax: read-out: M3 FDSS PA %. As for the experimental part:
as §1, §3, §4, §2

This note sets out measurements from US11485742B2, “2-azaspiro[3.4]octane derivatives as M4 agonists” (NOVARTIS AG, priority 2019, dated 2022).

pEC50: −log10 of the molar value.

T3 sequence (P20309 whole entry): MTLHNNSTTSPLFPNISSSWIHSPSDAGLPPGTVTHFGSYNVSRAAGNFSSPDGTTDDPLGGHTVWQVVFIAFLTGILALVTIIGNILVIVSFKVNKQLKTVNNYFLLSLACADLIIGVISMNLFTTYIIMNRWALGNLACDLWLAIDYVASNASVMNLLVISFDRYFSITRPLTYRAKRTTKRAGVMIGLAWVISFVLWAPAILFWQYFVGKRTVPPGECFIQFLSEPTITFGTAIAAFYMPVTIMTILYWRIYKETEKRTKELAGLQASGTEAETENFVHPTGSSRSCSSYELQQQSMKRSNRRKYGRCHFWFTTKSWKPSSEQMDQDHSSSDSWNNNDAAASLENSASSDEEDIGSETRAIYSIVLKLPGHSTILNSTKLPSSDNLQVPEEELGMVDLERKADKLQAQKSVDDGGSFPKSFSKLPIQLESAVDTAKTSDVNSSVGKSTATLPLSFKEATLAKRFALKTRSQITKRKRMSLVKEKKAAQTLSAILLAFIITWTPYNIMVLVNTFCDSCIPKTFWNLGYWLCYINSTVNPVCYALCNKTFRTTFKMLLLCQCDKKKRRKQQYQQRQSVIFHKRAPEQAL

What is called pEC50 is the negative decadic logarithm of the EC50, by convention in mol/L. Take `Fc1ccc(OC[C@H]2CCO2)c(C2CCN([C@@H]3COC4(C3)CN(c3nncs3)C4)CC2)c1.O=C(O)C(F)(F)F` (single isomer, unassigned) [Example 2C, (S)-7-(4-(5-fluoro-2-(((R)-oxetan-2-yl)methoxy)phenyl)piperidin-1-yl)-2-(1,3,4-thiadiazol-2-yl)-5-oxa-2-azaspiro[3.4]octane trifluoroacetate or (S)-7-(4-(5-fluoro-2-(((S)-oxetan-2-yl)methoxy)phenyl)piperidin-1-yl)-2-(1,3,4-thiadiazol-2-yl)-5-oxa-2-azaspiro[3.4]octane trifluoroacetate]: in experiment [1], the “M1 FDSS PA %” value came out at 75% and the pEC50 is 5.94. Besides, in experiment [2], the “M5 FDSS PA %” value worked out at 0% and the negative-log EC50 (pEC50) is below 4.60. In experiment [3], the “M3 FDSS PA %” value came to 0% and the negative-log EC50 (pEC50) is below 4.60.

As to `CC1(C)C[C@@H](Oc2ccc(F)cc2C2CCN([C@@H]3COC4(C3)CN(c3nnco3)C4)CC2)CO1` (single isomer, unassigned) [Example 2O, (S)-7-(4-(2-(((R)-5,5-dimethyltetrahydrofuran-3-yl)oxy)-5-fluorophenyl)piperidin-1-yl)-2-(1,3,4-oxadiazol-2-yl)-5-oxa-2-azaspiro[3.4]octane or (S)-7-(4-(2-(((S)-5,5-dimethyltetrahydrofuran-3-yl)oxy)-5-fluorophenyl)piperidin-1-yl)-2-(1,3,4-oxadiazol-2-yl)-5-oxa-2-azaspiro[3.4]octane], in experiment [1], the “M1 FDSS PA %” value is listed as 72% and the negative-log EC50 (pEC50) is 5.95. In experiment [2], the “M5 FDSS PA %” value amounted to 0% and the pEC50 is below 4.60. In experiment [3], the “M3 FDSS PA %” value was determined as 0% and the pEC50 is below 4.60.

Take `Fc1ccc(O[C@@H]2CCOC2)c(C2CCN([C@@H]3COC4(C3)CN(c3ncco3)C4)CC2)c1` [Example 4D, (S)-7-(4-(5-fluoro-2-(((R)-tetrahydrofuran-3-yl)oxy)phenyl)piperidin-1-yl)-2-(oxazol-2-yl)-5-oxa-2-azaspiro[3.4]octane]: the Emax is 95% in experiment [1], 0% in experiment [2] and 0% in experiment [3]. For the same compound, the negative logarithm of the EC50 (pEC50) is 6.13 in experiment [1], below 4.60 in experiment [2] and below 4.60 in experiment [3].

As to `Fc1ccc(OC[C@@H]2CCOC2)c(C2CCN([C@@H]3COC4(C3)CN(c3nnco3)C4)CC2)c1` [Example 1B, (S)-7-(4-(5-fluoro-2-(((R)-tetrahydrofuran-3-yl)methoxy)phenyl)piperidin-1-yl)-2-(1,3,4-oxadiazol-2-yl)-5-oxa-2-azaspiro[3.4]octane], the Emax in experiment [1] is 72%; in experiment [2], 0%; in experiment [3] it was 0%. Also, the negative logarithm of the EC50 (pEC50) in experiment [1] was 6.22; in experiment [2] it was below 4.60; in experiment [3] it was below 4.60.

As to `Fc1cc(O[C@@H]2CCOC2)c(C2CCN([C@@H]3COC4(C3)CN(c3nncs3)C4)CC2)cc1F` [Example 5M, (S)-7-(4-(4,5-difluoro-2-(((R)-tetrahydrofuran-3-yl)oxy)phenyl)piperidin-1-yl)-2-(1,3,4-thiadiazol-2-yl)-5-oxa-2-azaspiro[3.4]octane], the values for the Emax in experiment [1], in experiment [2] and in experiment [3] were 66%, 0% and 0%, respectively. Further, the values for the pEC50 in experiment [1], in experiment [2] and in experiment [3] were 6.10, below 4.60 and below 4.60, respectively.

With `COc1ccccc1C1CCN([C@@H]2COC3(C2)CN(c2ncns2)C3)CC1` [Example 5B, (S)-7-(4-(2-methoxyphenyl)piperidin-1-yl)-2-(1,2,4-thiadiazol-5-yl)-5-oxa-2-azaspiro[3.4]octane], the Emax was determined as 22% in experiment [1], 0% in experiment [2] and 0% in experiment [3]. The pEC50 in experiment [1] is 5.80; in experiment [2] it was below 4.60; in experiment [3], below 4.60.

Consider `Fc1ccc(OC2COC2)c(C2CCN([C@@H]3COC4(C3)CN(c3ncco3)C4)CC2)c1` [Example 4A, (S)-7-(4-(5-fluoro-2-(oxetan-3-yloxy)phenyl)piperidin-1-yl)-2-(oxazol-2-yl)-5-oxa-2-azaspiro[3.4]octane], for which the Emax in experiment [1] was found to be 84%; in experiment [2], 0%; in experiment [3], 0%. Further, the pEC50 is 6.63 in experiment [1], below 4.60 in experiment [2] and below 4.60 in experiment [3].

As to `c1ccc(C2CCN([C@@H]3COC4(C3)CN(c3ncco3)C4)CC2)c(OC2CCOCC2)c1` [Example 4J, (S)-2-(oxazol-2-yl)-7-(4-(2-((tetrahydro-2H-pyran-4-yl)oxy)phenyl)piperidin-1-yl)-5-oxa-2-azaspiro[3.4]octane], the values for the Emax in experiment [1], in experiment [2] and in experiment [3] were 72%, 0% and 0%, respectively. Moreover, the negative-log EC50 (pEC50) was 5.78 in experiment [1], below 4.60 in experiment [2] and below 4.60 in experiment [3].
